Results: patent EP0565593B1, “REDUCING PESTICIDAL INTERACTIONS IN CROPS” (priority 1990, dated 1992)
Several values for one entry are separate records, joined by “and”; a condition that tells them apart may be missing. Equal entries are not always repeated. Where two headings read alike, the source gives them in different places.

How the values were obtained:
[1] = test system: Corn; test: Greenhouse test Procedure VI: biocide and antidote in furrow, herbicide PPI in cover layer (Examples 43-47, 59-61; Tables 42-46, 58-60); assay type: in vivo; conditions: Example 43; Antidotes 1, 7, 12, 33
Description: This procedure describes interaction among herbicide, biocide and antidote when the herbicide is incorporated in a soil cover layer and the biocide and the antidote are applied in a soil furrow containing crop seed before emergence of the crop. The soil and seeding depth were described in Procedure IV. A first container was designated as an untreated control, a second container was designated as a herbicide control, a third container was designated as a herbicide + biocide control and a fourth container as a herbicide + biocide + antidote test container. The biocide and antidote were formulated as granules. The biocide was applied to the soil furrows of the third and fourth containers at an application rate of 1.1 mg of active compound per cm of row. The antidote was applied to the soil furrow of the fourth container at an application rate of 0.37 mg of active compound per cm of row. A measured amount of the herbicide dispersed or dissolved in acetone was applied to a measured quantity of soil. The quantity of soil treated with the herbicide was thoroughly mixed to incorporate the herbicide. Samples of this soil were used to cover the seed beds of the second, third and fourth containers. For each test series, the seed bed of the first container was likewise covered by a soil layer not treated with herbicide and without biocide or antidote in the soil furrow.
The containers were then placed on a bench in a greenhouse. Watering was by subirrigation plus overhead irrigation after the plants emerged. All treatments were run in duplicate. Plant response was observed according to Procedure IV. Variations in this procedure will be noted in the examples.
In continuing tests to evaluate the variations of this invention, a series of tests were conducted to determine the efficacy of the above safeners in Examples 39-42 to alleviate corn injury induced by the interaction of various additional commercial sulfonylurea herbicides with COUNTER 15G insecticide. In this example, the tests were conducted according to Procedure VI above. In modifications of that procedure, herbicides were applied to soil samples as acetone/water suspensions, incorporated by shaking in a closed container, with subsamples used to cover furrow-treated 10.2 cm pots. Pots were subirrigated followed by overhead misting on days 6-10.
This example was designed to test the safening effect of those above safeners used in this test series to relieve corn injury by negative synergism induced by interaction of COUNTER 15G and three imidazolinone herbicides, i.e., imazaquin and imazapyr (used in the POE tests in Example 41) and AC 263222 (a.i. in CADRE® herbicide). As differing from the tests in Example 41, this test was a PPI test according to Procedure VI described above. Observation of test results (Table 43) were taken thirteen 913) days after in-furrow PPI preparation.
This example describes PPI tests to evaluate said test safeners in this series with analogs of the sulfonamide herbicides tested under POE herbicide application procedures described in Example 42. In these tests, conducted according to Procedure VI described above, Herbicide Nos. 20, 22 and 24 were applied PPI with the insecticide and antidote. Observations of tests results were made thirteen days after PPI initiation.
An additional three (3) sulfonamide herbicide analogs were tested simultaneously and under the same conditions described in Example 45.
Another test of this invention involved the safening effects of the safeners in this series against negative synergy inducted by the interaction of COUNTER 15G and a sulfonylurea herbicide (OUST®), Herbicide No. 13, and PURSUIT, an imidazolinone herbicide, No. 6. Test conditions were the same as those in Examples 43-46. Other procedures for applying herbicidal formulations are as described in Example 42. […]

[2] = test system: Giant foxtail (GIFT); test: whole plant or invertebrate; assay type: in vivo; conditions: […]; PPI; 14 days after PPI (Table 34)
[3] = test system: Shattercane (SHCA); assay type: in vivo; conditions: […]
[4] = test system: Velvetleaf (VELE); test: whole plant or invertebrate; assay type: in vivo, Abutilon theophrasti; conditions: […]; PPI; 14 days after PPI (Table 34)
[5] = test system: Corn; test: Greenhouse test Procedure VII: biocide and antidote in furrow, herbicide POE (Examples 39-42, 48-50, 56-58; Tables 38-41, 47-49, 55-57); assay type: in vivo; conditions: Herbicide No. 8 0.28 Kg/Ha POE + COUNTER 15G 227 g/305 m + antidote in furrow
Description: This procedure describes interaction among herbicide, biocide and antidote when the biocide and the antidote is applied to a soil furrow containing crop seed before emergence of the crop and the herbicide is applied after emergence of the crop and weeds. The soil and planting depth was described in Procedure IV. The containers for comparison, the biocide and antidote applications to soil furrows were described in Procedure VI. In this procedure, the seed beds of the first, second, third and fourth containers are covered by soil layers not treated with herbicide. The containers were then placed on a bench in a greenhouse and subirrigated as required for the duration of the test. The herbicide, dispersed or dissolved in water containing 0.25% v/v nonionic surfactant (X-77) was applied by a track sprayer (187 L/ha) to the emerged plants of the second, third and fourth containers about five days after planting. All treatments were run in duplicate. Plant response was observed according to Procedure IV. Variations in this procedure will be noted in the examples.
In this example, tests were conducted according to Procedure VII for the POE application of the herbicides following in-furrow application of COUNTER® 15G insecticide (BIOCIDE No. 1) and the antidote on the pre-planted test seeds. In this test, the herbicides were Nos. 1 (MON-12000), 10 (ALLY®) and #4 (HARMONY®) and the Antidote Nos. 1, 7, 12 and 33.
These in-furrow treatments comprised a 50-50 mix of blended granules of COUNTER with and without 5G granular antidotes at 7.4 + 7.4 mg/cm or 1.1 + 0.37 mg active ingredient (a.i.)/cm. The in-furrow initiation of the test was followed five (5) days later with POE application of the herbicides; observations were made eight (8) days later.
In another test, conducted simultaneously with that in Example 39, Herbicide Nos. 5 (chlorimuron ethyl, active ingredient in CLASSIC® herbicide), 7 (nicosulfuron, active ingredient in ACCENT® herbicide) and 15 (tribenuron methyl, active ingredient in EXPRESS® herbicide) were substituted as test herbicides.
In this example, using the same procedure as above, the following imidazolinone herbicides were used with the same insecticide/biocide and antidotes as above: Herb. No. 16 (imazaquin, a.i. in SCEPTER® herbicide; No. 19 (Code No. AC 222293, a.i. in ASSERT® herbicide); No. 6 (imazethapyr, a.i. in PURSUIT® herbicide and No. 18 (imazapyr, a.i. in ARSENAL® herbicide). Test results are shown in Table 40. Table 40
This example describes the testing of the above antidotes used in Examples 39-41 to safen negative synergy interactions between representative species of the class of herbicidal compounds identified as azolopyrimidine sulfonamides and COUNTER 15G. The same procedure used in the above examples was conducted in this test. In this test, the herbicides were formulated in 17% acetone and 83% water with 0.25% v/v X-77 surfactant.
In these tests (according to Procedure VII) the safeners in solution with acetone were applied in furrow to the soil, followed by COUNTER 15G granules at 227 g/305 m (8 oz./1000'). Applications were made in alternate rows in two separate 13.7 cm x 27.7 cm pans containing Dupo silt loam. Pans were seeded 1.3 cm deep, placed on benches in a greenhouse and subirrigated. BEACON was formulated in water with 0.25% v/v X-77 surfactant and applied by track sprayer at a rate of 187 L/Ha (20 gal/A). Weed species in this test were giant foxtail, shattercane and velvetleaf. The herbicide was applied five (5) days after PPI initiation and observation of test result (shown in Table 47) made eight (8) days later.
In Table 47 COUNTER 15G is abbreviated as "C" and the antidotes as "A" in the column headings which indicate the "C + A" ratios used in the tests. Control and COUNTER treatments are average of four (4) replications and COUNTER + Antidote treatments, average of 2 reps. […]

[6] = test system: Velvetleaf (VELE); assay type: in vivo, Abutilon theophrasti; conditions: […]
[7] = test system: Corn; conditions: […]
[8] = test system: Corn; conditions: […]; PPI; 14 days after PPI (Table 34)
[9] = test system: Corn; test: Greenhouse test, combination of Procedures II and III: insecticide in-furrow or in cover layer, herbicide and antidote incorporated in cover layer (Examples 1-3, 6; Tables 1-3, 6); assay type: in vivo; conditions: for % Injury Corn: 3 weeks
[10] = test system: velvetleaf (Abutilon theophrasti); test: Greenhouse test, combination of Procedures II and III (Examples 1, 2; Tables 1, 2); assay type: in vivo; conditions: 3 weeks
[11] = observed 8 days later (Table 32)
[12] = observed 8 days later (Table 33)
[13] = Ex. 2: Insecticide 1 (0.23 Kg/Ha) + Herbicide 9 2.24 Kg/Ha
[14] = Ex. 2: Insecticide 2 3.36 Kg/Ha + Herbicide 9 2.24 Kg/Ha
[15] = Ex. 2: Insecticide 2 3.36 Kg/Ha + Herbicide 2 4.48 Kg/Ha

SMILES: COC(=O)c1ccccc1S(=O)(=O)NC(=O)Nc1nc(C)cc(C)n1 [Herbicide No. 13, reference compound]
- safening of herbicide/COUNTER 15G corn injury by the antidotes [1]: limited to nil

SMILES: CCSC(=O)COC(c1ccccc1)c1ccccc1 [compound 51]
- % Inhibition GIFT [2]: 65%
- % Inhibition SHCA [3, 11]: 80%
- % Inhibition SHCA [3, 12]: 35%
- % Inhibition VELE [4]: 90%
- % Corn Inhibition C:A Ratios 5 ([5]; C:A ratio 5): 0%
- % Corn Inhibition C:A Ratios 10 ([5]; C:A ratio 10): 5%
- % Corn Inhibition C:A Ratios 20 ([5]; C:A ratio 20): 3%
- % Corn Inhibition C:A Ratios 40 ([5]; C:A ratio 40): 8%
- % Corn Inhibition C:A Ratios 80 ([5]; C:A ratio 80): 10%
- % Corn Inhibition C:A Ratios 160 ([5]; C:A ratio 160): 10%
- % Inhibition VELE [6, 11]: 85%
- % Inhibition VELE [6, 12]: 70%
- % Inhibition Corn [7, 11]: 0%
- % Inhibition Corn [7, 12]: 30%
- % Inhibition Corn [8]: 25%

SMILES: COc1nc(C)nc(NC(=O)NS(=O)(=O)c2ccccc2Cl)n1 [Herbicide No. 12, Benzenesulfonamide, 2-chloro-N-[[(4-methoxy-6-methyl-1,3,5-triazin-2-yl)amino]carbonyl]-, reference compound]
- safening of herbicide/COUNTER 15G corn injury by the antidotes [1]: effectively reduced corn injury

SMILES: CCNc1nc(Cl)nc(NC(C)C)n1 [Herbicide No. 9, 2-Chloro-4-(ethylamino)-6-(isopropylamino)-S-triazine, reference compound]
- % Injury Corn [9, 13]: 3%
- % Injury Corn [9, 14]: 0%
- injury to corn ([9]; Ex. 2: combination of the insecticides (Nos. 1, 2) with atrazine): did not appear to be any significant injury
- % Injury Corn ([9]; Ex. 3: Herbicide 9 2.24 Kg/Ha): 0%
- % Injury Corn ([9]; Ex. 3: Insecticide 3 (227 g) + Herbicide 9 2.24 Kg/Ha): 0%
- % Injury Corn ([9]; Ex. 3: Insecticide 4 (227 g) + Herbicide 9 2.24 Kg/Ha): 0%
- % Injury VELE [10, 13]: 88%
- % Injury VELE [10, 14]: 30%

SMILES: COc1nc(C)nc(NC(=O)NS(=O)(=O)c2ccccc2OCCCl)n1 [Herbicide No. 11, Benzenesulfonamide, 2-(2-chloroethoxy)-N-[[(4-methoxy-6-methyl-1,3,5-triazin-2-yl)amino]carbonyl]-, reference compound]
- safening of herbicide/COUNTER 15G corn injury by the antidotes [1]: effectively reduced corn injury

SMILES: COC(=O)c1ccccc1CS(=O)(=O)NC(=O)Nc1nc(OC)cc(OC)n1 [Herbicide No. 14, Benzoic acid, 2-[[[[[(4,6-dimethoxy-2-pyrimidinyl)amino]carbonyl]amino]sulfonyl]methyl]-, methyl ester, reference compound]
- safening of herbicide/COUNTER 15G corn injury by the antidotes [1]: effectively reduced corn injury

SMILES: CCOCN(C(=O)CCl)c1c(C)cccc1CC [Herbicide No. 2, 2-Chloro-2'-ethyl-6'-methyl-N-(ethoxymethyl)acetanilide, reference compound]
- % Injury Corn ([9]; Ex. 2: Insecticide 1 0.23 Kg/305m (ditto mark) + Herbicide 2 4.48 Kg/Ha (so in the source)): 66% and 93%
- % Injury Corn [9, 15]: 76%
- % Injury Corn ([9]; Ex. 3: Herbicide 2 4.48 Kg/Ha): 78%
- % Injury Corn ([9]; Ex. 3: Insecticide 3 (227 g) + Herbicide 2 4.48 Kg/Ha): 83%
- % Injury Corn ([9]; Ex. 3: Insecticide 4 (227g) + Herbicide 2 4.48 Kg/Ha): 95%
- % Injury VELE [10, 15]: 35%
